Drawing on ChEMBL document CHEMBL1146862, “Synthesis of trifluoromethylaryl diazirine and benzophenone derivatives of etomidate that are potent general anesthetics and effective photolabels for probing sites on ligand-gated ion channels” (J Med Chem, 2006), this text covers inhibition, Activity and EC50 for 6 compounds.

The structures appear in SMILES notation. Activity calls are given as the source filed them. No cut-off for these calls is given here. A value given as a limit tells only on which side of the number the result lay.

The target of assay [1] is T1, Serotonin 3 (5-HT3) receptor (Homo sapiens) (UniProt P46098+A5X5Y0+O95264+Q70Z44+Q8WXA8). The experiment in a line: Inhibition of 5HT3 receptor at 0.22 uM. Type of assay: protein-complex assay.
The target of assay [2] is T2, GABA-A receptor; anion channel (Homo sapiens) (UniProt P14867+P47870+P18507+P28472+P48169+Q99928+Q9UN88+P34903+O00591+O14764+Q8N1C3+P18505+P78334+P47869+P31644+Q16445). As to the kind of experiment: Enhancement of [3H]flunitrazepam binding to cerebral cortex GABA-A receptor at 0.1 uM. Type of assay: tissue-based.
For assay [3], the target named is T3, GABA-A receptor; alpha-1/beta-2/gamma-2 (Homo sapiens) (UniProt P14867+P47870+P18507). As to the kind of experiment: Enhancement of current in Xenopus laevis oocytes expressing human GABA-Alpha1 receptor plus beta-2-gamma-2L upto 10 uM. It counts as functional, cell-based. Conditions: Oocyte.
In the next assay the test system is Xenopus sp. As to the kind of experiment: Anesthetic activity in Xenopus tadpole measured as loss of righting reflex. Type of assay: functional, organism-based.
Assay [4] addresses T2, GABA-A receptor; anion channel (Homo sapiens). The experiment in a line: Reduction of [3H]flunitrazepam binding to cerebral cortex GABA-A receptor at 100 uM relative to control. It counts as tissue-based. Also noted: scale not given: the % may be the effect or the level left.
Assay [5] has the same target. The experiment in a line: Enhancement of [3H]flunitrazepam binding to cerebral cortex GABA-A receptor at >=0.3 uM. It counts as tissue-based.
The target of assay [6] is T1, Serotonin 3 (5-HT3) receptor (Homo sapiens). As to the kind of experiment: Inhibition of 5HT3 receptor at 2.2 uM. It counts as protein-complex assay.
The target in assay [7] is T4, Acetylcholine receptor subunit delta (Torpedo californica) (UniProt P02718).
T4 sequence (whole entry): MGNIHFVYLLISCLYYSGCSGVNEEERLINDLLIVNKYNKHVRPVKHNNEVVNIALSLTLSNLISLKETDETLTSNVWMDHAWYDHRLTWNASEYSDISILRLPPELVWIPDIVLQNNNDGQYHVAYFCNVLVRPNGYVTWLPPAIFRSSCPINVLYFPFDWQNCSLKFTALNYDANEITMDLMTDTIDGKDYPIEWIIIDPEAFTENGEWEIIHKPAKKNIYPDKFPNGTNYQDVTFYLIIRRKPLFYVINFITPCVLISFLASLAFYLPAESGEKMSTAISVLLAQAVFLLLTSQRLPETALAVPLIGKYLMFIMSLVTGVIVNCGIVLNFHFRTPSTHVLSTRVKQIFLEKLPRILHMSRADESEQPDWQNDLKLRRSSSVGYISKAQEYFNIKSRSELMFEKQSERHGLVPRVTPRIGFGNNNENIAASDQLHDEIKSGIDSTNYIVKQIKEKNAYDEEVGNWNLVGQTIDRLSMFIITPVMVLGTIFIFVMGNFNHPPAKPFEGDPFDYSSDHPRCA
The experiment in a line: Photolabeling of Torpedo californica delta nAChR in presence of agonist relative to in absence of agonist. The following applies: Tetronarce californica. It counts as functional.

In assay [8] the target is T2, GABA-A receptor; anion channel (Homo sapiens). As to the kind of experiment: Enhancement of [3H]flunitrazepam binding to cerebral cortex GABA-A receptor at 1 uM. Type of assay: tissue-based.
In assay [9] the target is T3, GABA-A receptor; alpha-1/beta-2/gamma-2 (Homo sapiens). The experiment in a line: Enhancement of current in Xenopus laevis oocytes expressing human GABA-Alpha1 receptor plus beta-2-gamma-2L upto 1 uM. Type of assay: functional, cell-based. Conditions: Oocyte.
Assay [10] concerns the target T1, Serotonin 3 (5-HT3) receptor (Homo sapiens). The experiment in a line: Inhibition of 5HT3 receptor at 0.7 uM. It counts as protein-complex assay.
Assay [11] addresses Acetylcholine receptor subunit alpha (Torpedo californica) (UniProt P02710). As to the kind of experiment: Photolabeling of Torpedo californica alpha nAChR in presence of agonist relative to in absence of agonist. It counts as functional. The following applies: Tetronarce californica.
The target of assay [12] is T1, Serotonin 3 (5-HT3) receptor (Homo sapiens). As to the kind of experiment: Inhibition of 5HT3 receptor at 2.3 uM. Type of assay: protein-complex assay.
Assay [13] has as its target T2, GABA-A receptor; anion channel (Homo sapiens). As to the kind of experiment: Enhancement of [3H]flunitrazepam binding to cerebral cortex GABA-A receptor at >=1 uM. Type of assay: tissue-based.

Acetylcholine receptor subunit alpha (Torpedo californica), sequence (P02710 whole entry): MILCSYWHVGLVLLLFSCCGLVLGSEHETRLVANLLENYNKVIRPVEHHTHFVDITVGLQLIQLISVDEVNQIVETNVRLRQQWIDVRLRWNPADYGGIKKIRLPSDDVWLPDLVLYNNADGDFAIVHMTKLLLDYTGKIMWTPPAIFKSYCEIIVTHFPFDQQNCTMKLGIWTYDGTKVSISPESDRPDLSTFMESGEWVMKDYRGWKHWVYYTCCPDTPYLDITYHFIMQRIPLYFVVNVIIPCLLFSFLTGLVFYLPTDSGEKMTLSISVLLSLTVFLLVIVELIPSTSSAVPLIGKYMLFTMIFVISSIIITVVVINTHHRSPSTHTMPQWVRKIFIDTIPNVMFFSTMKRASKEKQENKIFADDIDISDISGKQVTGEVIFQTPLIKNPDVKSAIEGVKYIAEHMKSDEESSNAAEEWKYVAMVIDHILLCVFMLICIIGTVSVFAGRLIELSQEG

By inhibition is commonly meant the relative decrease from the control value, in per cent. For orientation: EC50 means the concentration needed to bring the measured effect to its halfway point. Take `C[C@H](c1ccccc1)n1cncc1C(=O)OCc1ccc(C(=O)c2ccccc2)cc1`: the inhibition in assay [1] is < 10%. In addition, the outcome in [2] was Active. For the same compound, the result in assay [3] was inactive. The midpoint of the response in the assay on Xenopus sp., the EC50, lay at 0.22 µM.
Take `CC(c1ccccc1)n1cncc1C(=O)OCCC1(C)N=N1` (stereo not drawn) [AZIETOMIDATE]: in assay [4], the Activity was 115%. In [5], the outcome was Active. Moreover, the inhibition in assay [6] is 8%. The EC50 in the assay with Xenopus sp. was 2.2 µM.
Take `C[N+](C)(C)CCOC(N)=O`: the Activity in [7] came to 60%.
Take `C[C@H](c1ccccc1)n1cncc1C(=O)OCc1ccc(C2(C(F)(F)F)N=N2)cc1`: in assay [8], the outcome was Active. Further, the EC50 in the assay with Xenopus sp. was found to be 0.7 µM. The outcome in [9] was inactive. Further, the inhibition in assay [10] is < 10%.
On to `CCCC(C(=O)OCCN(CC)CC)(c1ccccc1)c1ccccc1`, for which the Activity in [11] is 70%.
As to `CCOC(=O)c1cncn1[C@H](C)c1ccccc1` [ETOMIDATE], in assay [4], the Activity was 78.5%. In assay [12], this compound gave an inhibition of 11%. Moreover, the result in [13] was Active. The EC50 with Xenopus sp. was 2.3 µM.
